In patent US20100056564A1, “Association of an anti-atherothrombotic agent and an anti-platelet-aggregation agent” (LES LABORATOIRES SERVIER, priority 2003, published 2010):

Test system: collagen-induced platelet aggregation
Assay: Inhibition of collagen-induced platelet aggregation ex vivo
Format: in vivo, humans
Conditions: collagen 5 μg/ml; citrated platelet-rich plasma (PRPc), aggregometer; oral administration to 18 volunteers; compound A 10 mg, clopidogrel 75 mg
Procedure: Measurement of the Inhibition of Collagen-Induced Platelet Aggregation:
10 mg of compound A and 75 mg of clopidogrel were administered orally for three days to 18 volunteers previously treated with 75 mg of clopidogrel for 7 days. The effect of the association of compound A and clopidogrel was compared with the effects of compound A and clopidogrel administered separately.
In the course of the test, the percentage inhibition of platelet aggregation ex vivo induced by collagen (5 μg/ml) was calculated by measuring the platelet aggregation on citrated platelet-rich plasma (PRPc) with the aid of an aggregometer.

## COC(=O)[C@H](c1ccccc1Cl)N1CCc2sccc2C1 [clopidogrel]
  percentage inhibition of platelet aggregation ex vivo induced by collagen: 11%
